Calls of active or inactive are those of the source.
What was measured:
[1] = system: Rattus norvegicus; assay: Antiallodynic activity against von Frey hair mechanically stimulated neuropathic pain in sc dosed Sprague-Dawley rat assessed as assessed as minimum effective dose to increase of response threshold after 1 hr; type: functional
[2] = system: Rattus norvegicus; assay: Antiallodynic activity against von Frey hair mechanically stimulated neuropathic pain in intrathecally dosed Sprague-Dawley rat assessed as assessed as minimum effective dose to increase of response threshold per site after 1 hr; type: functional
[3] = biological target: Glutamate NMDA receptor (Rattus norvegicus) (UniProt P35439+Q00959+Q00960+Q00961+Q62645+Q8VHN2+Q9R1M7); assay: Inhibition of rat NMDA receptor at 1 uM relative to control; type: protein-complex assay
[4] = species: Rattus norvegicus; assay: Inhibition of rat AMPA receptor at 1 uM relative to control
[5] = biological target: Cysteinyl leukotriene receptor 1 (Homo sapiens) (UniProt Q9Y271); assay: Inhibition of human leukotriene D4 receptor at 1 uM relative to control
[6] = Drug level Sprague-Dawley rat spinal cord at 10 mg/kg, sc after 0.5 hrs; type: ADME, organism-based; set-up: dose 10 mg/kg, route subcutaneous; conditions: read-out: Drug uptake
[7] = biological target: monoamine oxidase A (Homo sapiens, UniProt P21397); assay: Inhibition of human monoamine oxidase A at 1 uM relative to control
Sequence of monoamine oxidase A (P21397 whole entry): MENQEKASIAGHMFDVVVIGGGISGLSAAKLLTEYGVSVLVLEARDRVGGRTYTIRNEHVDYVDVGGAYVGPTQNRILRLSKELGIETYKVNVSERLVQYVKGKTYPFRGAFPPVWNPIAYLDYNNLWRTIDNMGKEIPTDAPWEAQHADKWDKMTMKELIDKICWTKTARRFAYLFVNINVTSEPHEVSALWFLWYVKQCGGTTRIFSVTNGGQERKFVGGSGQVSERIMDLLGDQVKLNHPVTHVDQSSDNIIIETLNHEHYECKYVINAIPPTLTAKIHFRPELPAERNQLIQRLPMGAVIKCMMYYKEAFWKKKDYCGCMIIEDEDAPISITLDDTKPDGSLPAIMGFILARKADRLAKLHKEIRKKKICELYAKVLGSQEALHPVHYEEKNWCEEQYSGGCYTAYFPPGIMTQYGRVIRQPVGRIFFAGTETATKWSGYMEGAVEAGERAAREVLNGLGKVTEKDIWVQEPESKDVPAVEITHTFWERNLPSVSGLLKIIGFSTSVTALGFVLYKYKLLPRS

[8] = biological target: Adenosine receptor A2a (Homo sapiens) (UniProt P29274); assay: Inhibition of human adenosine A2A receptor at 1 uM relative to control
Sequence of Adenosine receptor A2a (Homo sapiens) (P29274 whole entry): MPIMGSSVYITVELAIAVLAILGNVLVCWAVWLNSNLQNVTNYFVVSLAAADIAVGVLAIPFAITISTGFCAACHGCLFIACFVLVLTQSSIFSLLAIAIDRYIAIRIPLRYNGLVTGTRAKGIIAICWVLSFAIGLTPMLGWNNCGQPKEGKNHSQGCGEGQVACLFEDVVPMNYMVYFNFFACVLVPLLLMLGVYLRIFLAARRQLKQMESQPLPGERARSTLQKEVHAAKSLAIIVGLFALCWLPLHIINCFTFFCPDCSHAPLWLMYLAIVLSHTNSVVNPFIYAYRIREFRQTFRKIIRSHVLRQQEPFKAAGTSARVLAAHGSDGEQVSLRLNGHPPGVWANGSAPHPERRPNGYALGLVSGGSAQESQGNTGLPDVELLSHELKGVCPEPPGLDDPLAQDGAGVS

[9] = system: Rattus norvegicus; assay: Toxicity in von Frey hair mechanically stimulated neuropathic pain Sprague-Dawley rat model assessed as sedation effect at up to 170 nmol/site, icv; type: organism-based; conditions: in vivo, icv_or_intrathecal
[10] = biological target: D(1A) dopamine receptor (Homo sapiens) (UniProt P21728); assay: Inhibition of human dopamine D1 receptor at 1 uM relative to control
[11] = system: Rattus norvegicus; assay: Antiallodynic activity against von Frey hair mechanically stimulated neuropathic pain in sc dosed Sprague-Dawley rat assessed as increase of response threshold after 30 mins; type: functional; conditions: 0.5 h
[12] = biological target: Sodium-dependent dopamine transporter (Homo sapiens) (UniProt Q01959); assay: Inhibition of human dopamine transporter at 1 uM relative to control
Sequence of Sodium-dependent dopamine transporter (Homo sapiens) (Q01959 whole entry): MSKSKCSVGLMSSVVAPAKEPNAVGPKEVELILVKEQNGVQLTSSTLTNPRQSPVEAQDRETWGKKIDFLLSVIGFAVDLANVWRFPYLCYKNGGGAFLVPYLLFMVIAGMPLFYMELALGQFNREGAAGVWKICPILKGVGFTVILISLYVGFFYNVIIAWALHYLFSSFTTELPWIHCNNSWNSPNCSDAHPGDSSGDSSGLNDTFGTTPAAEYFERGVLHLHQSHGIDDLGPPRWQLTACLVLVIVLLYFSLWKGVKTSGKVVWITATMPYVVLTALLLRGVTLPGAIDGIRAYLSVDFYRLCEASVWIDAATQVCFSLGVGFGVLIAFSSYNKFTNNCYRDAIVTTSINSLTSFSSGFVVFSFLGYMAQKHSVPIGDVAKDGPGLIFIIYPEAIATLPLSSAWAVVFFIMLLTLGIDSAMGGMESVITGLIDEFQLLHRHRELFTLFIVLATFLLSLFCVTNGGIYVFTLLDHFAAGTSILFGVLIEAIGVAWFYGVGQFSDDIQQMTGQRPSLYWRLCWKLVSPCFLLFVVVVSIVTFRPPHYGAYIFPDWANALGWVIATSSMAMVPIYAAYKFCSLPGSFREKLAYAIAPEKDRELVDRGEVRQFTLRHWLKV

[13] = biological target: Muscarinic acetylcholine receptor M1 (Homo sapiens) (UniProt P11229); assay: Inhibition of human muscarinic M1 receptor at 1 uM relative to control
[14] = system: Rattus norvegicus; assay: Antiallodynic activity against von Frey hair mechanically stimulated neuropathic pain in Sprague-Dawley rat assessed as effect on allodynia in contralateral paw at 1 to 30 mg/kg, sc after 1 hr; type: functional, organism-based
[15] = system: Rattus norvegicus; assay: Antiallodynic activity against von Frey hair mechanically stimulated neuropathic pain in Sprague-Dawley rat assessed as effect on allodynia in contralateral paw at 5.5 to 170 nmol/site, icv after 1 hr; type: functional, organism-based
[16] = biological target: D(4) dopamine receptor (Homo sapiens) (UniProt P21917); assay: Inhibition of human dopamine D4.4 receptor at 1 uM relative to control
[17] = species: Rattus norvegicus; assay: Stimulation of rat guanylate cyclase at 1 uM relative to basal activity
[18] = system: Rattus norvegicus; assay: Antiallodynic activity against von Frey hair mechanically stimulated neuropathic pain in Sprague-Dawley rat assessed as effect on allodynia in contralateral paw at 5.5 to 170 nmol/site, icv after 20 mins; type: functional, organism-based
[19] = system: Rattus norvegicus; assay: Antiallodynic activity against von Frey hair mechanically stimulated neuropathic pain in Sprague-Dawley rat assessed as increase of response threshold at 10 mg/kg, sc after 1 hr relative to control; type: functional; conditions: route subcutaneous
[20] = system: Rattus norvegicus; assay: Antiallodynic activity against von Frey hair mechanically stimulated neuropathic pain in Sprague-Dawley rat assessed as increase of response threshold at 30 mg/kg, sc after 1 hr relative to control; type: functional; conditions: route subcutaneous
[21] = Drug level Sprague-Dawley rat plasma at 10 mg/kg, sc after […]; type: ADME, organism-based; set-up: dose 10 mg/kg, route subcutaneous; conditions: read-out: Drug uptake
[22] = biological target: Voltage-gated inwardly rectifying potassium channel KCNH2 (Homo sapiens, UniProt Q12809); assay: Displacement of [3H]dofetilide from human ERG expressed in HEK293 cells after 60 mins by liquid scintillation counting; type: cell-based
[23] = system: Rattus norvegicus; assay: Antiallodynic activity against von Frey hair mechanically stimulated neuropathic pain in Sprague-Dawley rat assessed as increase of response threshold per site at 55 nmol/site administered intrathecally after 20 mins relative to control; type: functional
[24] = biological target: Muscarinic acetylcholine receptor M3 (Homo sapiens) (UniProt P20309); assay: Inhibition of human muscarinic M3 receptor at 1 uM relative to control
Sequence of Muscarinic acetylcholine receptor M3 (Homo sapiens) (P20309 whole entry, looked up): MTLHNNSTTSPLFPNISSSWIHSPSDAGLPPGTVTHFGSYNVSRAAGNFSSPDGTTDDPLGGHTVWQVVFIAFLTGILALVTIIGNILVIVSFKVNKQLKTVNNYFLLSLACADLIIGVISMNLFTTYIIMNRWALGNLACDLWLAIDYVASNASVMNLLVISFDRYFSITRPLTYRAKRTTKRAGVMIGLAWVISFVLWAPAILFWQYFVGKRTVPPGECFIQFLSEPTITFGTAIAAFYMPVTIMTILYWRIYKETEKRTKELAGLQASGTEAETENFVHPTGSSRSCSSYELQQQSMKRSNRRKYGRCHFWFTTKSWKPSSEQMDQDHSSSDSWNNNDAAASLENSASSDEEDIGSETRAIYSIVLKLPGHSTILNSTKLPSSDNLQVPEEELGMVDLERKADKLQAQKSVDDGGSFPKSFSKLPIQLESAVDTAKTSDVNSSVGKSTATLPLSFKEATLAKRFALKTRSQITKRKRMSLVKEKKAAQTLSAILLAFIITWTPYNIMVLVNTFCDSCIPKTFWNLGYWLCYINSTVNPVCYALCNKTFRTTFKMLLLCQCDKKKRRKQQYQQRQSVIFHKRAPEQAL

[25] = biological target: Estrogen receptor (Homo sapiens) (UniProt P03372); assay: Inhibition of human estrogen receptor beta at 1 uM relative to control
Sequence of Estrogen receptor (Homo sapiens) (P03372 whole entry): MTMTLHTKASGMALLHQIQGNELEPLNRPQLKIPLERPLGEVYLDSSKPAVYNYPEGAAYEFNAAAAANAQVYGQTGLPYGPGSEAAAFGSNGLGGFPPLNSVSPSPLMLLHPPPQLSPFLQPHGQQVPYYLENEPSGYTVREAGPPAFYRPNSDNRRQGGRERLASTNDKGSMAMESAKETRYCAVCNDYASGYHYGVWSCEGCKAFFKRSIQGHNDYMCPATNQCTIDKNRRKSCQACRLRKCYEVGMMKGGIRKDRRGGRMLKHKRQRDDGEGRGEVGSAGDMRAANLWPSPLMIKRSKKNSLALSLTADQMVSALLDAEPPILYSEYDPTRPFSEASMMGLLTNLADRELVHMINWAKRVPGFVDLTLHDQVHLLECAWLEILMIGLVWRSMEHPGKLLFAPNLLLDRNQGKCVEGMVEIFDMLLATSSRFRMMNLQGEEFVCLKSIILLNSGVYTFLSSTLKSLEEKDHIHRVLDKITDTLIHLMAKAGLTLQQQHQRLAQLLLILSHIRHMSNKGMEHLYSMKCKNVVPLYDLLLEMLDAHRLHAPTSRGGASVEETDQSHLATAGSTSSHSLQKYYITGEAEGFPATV

[26] = species: Rattus norvegicus; assay: Stimulation of rat adenylate cyclase at 1 uM relative to basal activity
[27] = biological target: Beta-2 adrenergic receptor (Homo sapiens) (UniProt P07550); assay: Inhibition of human beta2 adrenoceptor at 1 uM relative to control
[28] = biological target: Histamine H1 receptor (Cavia porcellus) (UniProt P31389); assay: Inhibition of guinea pig histamine H1 receptor at 1 uM relative to control
Sequence of Histamine H1 receptor (Cavia porcellus) (P31389 whole entry): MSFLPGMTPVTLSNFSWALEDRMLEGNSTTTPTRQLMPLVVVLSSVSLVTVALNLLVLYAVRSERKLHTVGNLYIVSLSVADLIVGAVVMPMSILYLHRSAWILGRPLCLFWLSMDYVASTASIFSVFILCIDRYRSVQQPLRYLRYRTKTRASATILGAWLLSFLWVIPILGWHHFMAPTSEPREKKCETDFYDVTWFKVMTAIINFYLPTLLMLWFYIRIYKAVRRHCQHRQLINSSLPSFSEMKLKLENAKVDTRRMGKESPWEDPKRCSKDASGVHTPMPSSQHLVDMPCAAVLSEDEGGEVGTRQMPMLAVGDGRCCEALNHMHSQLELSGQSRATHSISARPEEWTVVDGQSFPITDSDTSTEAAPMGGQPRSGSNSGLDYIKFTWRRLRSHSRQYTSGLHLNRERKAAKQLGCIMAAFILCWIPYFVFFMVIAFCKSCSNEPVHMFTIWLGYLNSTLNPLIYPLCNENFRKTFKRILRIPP

[29] = biological target: Adrenergic receptor alpha-2 (Rattus norvegicus) (UniProt P22086+P19328+P22909); assay: Inhibition of rat alpha2 adrenoceptor at 1 uM relative to control
[30] = system: Rattus norvegicus; assay: Toxicity in von Frey hair mechanically stimulated neuropathic pain Sprague-Dawley rat model assessed as respiratory depression at up to 170 nmol/site, icv; type: organism-based; conditions: in vivo, icv_or_intrathecal
[31] = biological target: Muscarinic acetylcholine receptor M2 (Homo sapiens) (UniProt P08172); assay: Inhibition of human muscarinic M2 receptor at 1 uM relative to control
Sequence of Muscarinic acetylcholine receptor M2 (Homo sapiens) (P08172 whole entry): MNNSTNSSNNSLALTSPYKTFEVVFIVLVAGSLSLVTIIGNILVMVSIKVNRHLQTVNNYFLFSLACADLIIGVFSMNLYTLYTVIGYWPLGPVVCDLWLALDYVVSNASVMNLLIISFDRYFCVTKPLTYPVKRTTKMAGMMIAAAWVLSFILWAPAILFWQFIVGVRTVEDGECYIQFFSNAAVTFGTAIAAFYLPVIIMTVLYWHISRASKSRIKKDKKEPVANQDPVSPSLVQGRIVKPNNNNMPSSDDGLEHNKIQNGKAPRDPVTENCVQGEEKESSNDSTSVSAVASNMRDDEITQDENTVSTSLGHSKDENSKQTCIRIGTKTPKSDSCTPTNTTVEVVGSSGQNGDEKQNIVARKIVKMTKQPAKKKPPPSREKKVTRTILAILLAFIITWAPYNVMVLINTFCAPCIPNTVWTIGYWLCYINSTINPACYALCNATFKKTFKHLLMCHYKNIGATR

[32] = biological target: Tyrosine 3-monooxygenase (Rattus norvegicus) (UniProt P04177); assay: Inhibition of rat tyrosine hydroxylase at 1 uM relative to control
[33] = biological target: Histamine H2 receptor (Cavia porcellus) (UniProt P47747); assay: Inhibition of guinea pig histamine H2 receptor at 1 uM relative to control
[34] = species: Homo sapiens; assay: Inhibition of human muscle-type nicotinic acetylcholine receptor at 1 uM relative to control
[35] = biological target: Substance-P receptor (Homo sapiens) (UniProt P25103); assay: Inhibition of human tachykinin NK1 receptor at 1 uM relative to control
Sequence of Substance-P receptor (Homo sapiens) (P25103 whole entry): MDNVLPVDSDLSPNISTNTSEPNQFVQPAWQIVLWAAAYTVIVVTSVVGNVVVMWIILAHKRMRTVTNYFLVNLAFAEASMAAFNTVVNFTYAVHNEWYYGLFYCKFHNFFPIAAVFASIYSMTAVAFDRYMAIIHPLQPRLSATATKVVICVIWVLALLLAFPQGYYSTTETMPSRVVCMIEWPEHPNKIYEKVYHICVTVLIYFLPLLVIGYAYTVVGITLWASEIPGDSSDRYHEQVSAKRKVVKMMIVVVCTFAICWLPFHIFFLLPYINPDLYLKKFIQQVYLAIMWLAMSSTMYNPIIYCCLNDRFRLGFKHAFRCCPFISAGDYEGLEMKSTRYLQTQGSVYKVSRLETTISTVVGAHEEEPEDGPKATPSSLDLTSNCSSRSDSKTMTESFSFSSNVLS

[36] = biological target: Substance-K receptor (Homo sapiens) (UniProt P21452); assay: Inhibition of human tachykinin NK2 receptor at 1 uM relative to control
Sequence of Substance-K receptor (Homo sapiens) (P21452 whole entry): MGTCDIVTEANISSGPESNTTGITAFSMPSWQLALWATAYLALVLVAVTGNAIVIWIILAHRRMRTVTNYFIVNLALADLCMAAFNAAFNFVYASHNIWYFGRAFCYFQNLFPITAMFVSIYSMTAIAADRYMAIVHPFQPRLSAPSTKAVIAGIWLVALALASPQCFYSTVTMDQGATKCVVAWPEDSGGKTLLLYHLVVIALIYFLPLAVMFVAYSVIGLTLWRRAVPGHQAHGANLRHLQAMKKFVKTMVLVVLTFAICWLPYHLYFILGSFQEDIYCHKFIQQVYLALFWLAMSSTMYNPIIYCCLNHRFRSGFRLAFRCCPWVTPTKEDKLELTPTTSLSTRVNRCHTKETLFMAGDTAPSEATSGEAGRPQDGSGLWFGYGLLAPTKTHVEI

[37] = biological target: Muscarinic acetylcholine receptor (Rattus norvegicus) (UniProt P08482+P08483+P08485+P08911+P10980); assay: Inhibition of rat muscarinic M receptor at 1 uM relative to control
[38] = system: Rattus norvegicus; assay: Antiallodynic activity against von Frey hair mechanically stimulated neuropathic pain in Sprague-Dawley rat assessed as increase of response threshold at 1 to 30 mg/kg, sc; type: functional, organism-based; conditions: TDE = time-dependent effect
[39] = species: Rattus norvegicus; assay: Inhibition of rat choline transporter at 1 uM relative to control
[40] = biological target: Adrenergic receptor alpha-1 (Rattus norvegicus) (UniProt P15823+P23944+P43140); assay: Inhibition of rat alpha1 adrenoceptor at 1 uM relative to control
[41] = biological target: Adenosine receptor A1 (Homo sapiens) (UniProt P30542); assay: Inhibition of human adenosine A1 receptor at 1 uM relative to control
Sequence of Adenosine receptor A1 (Homo sapiens) (P30542 whole entry): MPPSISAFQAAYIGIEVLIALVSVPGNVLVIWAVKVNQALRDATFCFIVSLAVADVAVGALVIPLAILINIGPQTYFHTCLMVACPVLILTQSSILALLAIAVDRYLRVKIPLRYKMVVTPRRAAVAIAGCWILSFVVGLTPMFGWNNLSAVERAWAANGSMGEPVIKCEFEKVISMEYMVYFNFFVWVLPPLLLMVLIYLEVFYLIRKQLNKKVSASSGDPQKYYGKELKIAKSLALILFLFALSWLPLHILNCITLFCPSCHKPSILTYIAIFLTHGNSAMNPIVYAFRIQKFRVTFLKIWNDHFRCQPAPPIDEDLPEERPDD

[42] = system: Rattus norvegicus; assay: Antiallodynic activity against von Frey hair mechanically stimulated neuropathic pain in Sprague-Dawley rat assessed as increase of response threshold per site at 55 nmol/site, icv after 20 mins relative to control; type: functional

OCC1(N2CCC(n3c(N4CC5CNCC5C4)nc4ccccc43)CC2)CCCCCCC1 (configuration not stated)
MED [1]: 10 mg/kg | MED [2]: 55 nmol | inhibition [3]: < 10% | inhibition [4]: < 10% | inhibition [5]: < 10% | concentration at 0.5 h [6]: 48 ng/mL | inhibition at 1 µM [7]: 12% | inhibition [8]: < 10% | Activity [9]: Non-toxic | inhibition [10]: < 10% | ED50 [11]: 26.8 mg/kg | inhibition [12]: < 10% | inhibition [13]: 15% | Activity [14]: inactive | Activity [15]: inactive | inhibition [16]: < 10% | inhibition [17]: < 10% | Activity [18]: inactive | Activity [19]: 37.6% | Activity [20]: 79.3% | concentration at […] [21]: 504 ng/mL | Ki [22]: 3.7 µM | Activity [23]: 49.4% | inhibition [24]: < 10% | inhibition [25]: < 10% | inhibition [26]: < 10% | inhibition [27]: 53% | inhibition [28]: < 10% | inhibition [29]: < 10% | Activity [30]: Non-toxic | inhibition [31]: 19% | inhibition [32]: < 10% | inhibition [33]: 22% | inhibition [34]: 21% | inhibition [35]: < 10% | inhibition [36]: < 10% | inhibition [37]: 38% | Activity [38]: tde | inhibition [39]: 11% | inhibition [40]: 16% | inhibition [41]: < 10% | Activity [42]: 23.7%
